Measurements taken from patent publication US20200264182A1, “METHOD FOR DETECTING PROSTATE CANCER” (J-OIL MILLS, INC., priority 2017, published 2020).

Legend:
[1] = FAC binding constant (Table 5 entry); conditions: Table 5: sugar chain having no fucose; at 25° C.
Method: (§1) Details of the FAC method are described in Patent Document 2 filed by some of the present applicants, for example.
(§2) Binding constants (at 25° C.) of PhoSL, SRL, NSL and LSL belonging to the fucose α1→6 specific lectin for various sugar chains are shown in Tables 2 to 5.

FAC binding constant = conditions: at 25° C.
Method: as §1, §2

[2] = sugar chain having fucose other than α1→6 fucose

- Binding constant for sugar chain No. 728 [1]: <1000 M⁻¹
- Binding constant for sugar chain No. 728 (FAC binding constant; Table 3: sugar chain having fucose other than α1→6 fucose): <1000 M⁻¹
- Binding constant for sugar chain No. 419 (FAC binding constant; [2]): <1000 M⁻¹
- Binding constant for sugar chain No. 420 (FAC binding constant; [2]): <1000 M⁻¹
- Binding constant for sugar chain No. 718 (FAC binding constant; [2]): <1000 M⁻¹
- Binding constant for sugar chain No. 719 (FAC binding constant; [2]): <1000 M⁻¹
- Binding constant for sugar chain No. 720 (FAC binding constant; [2]): <1000 M⁻¹
- Binding constant for sugar chain No. 721 (FAC binding constant; [2]): <1000 M⁻¹
- Binding constant for sugar chain No. 722 (FAC binding constant; [2]): <1000 M⁻¹
- Binding constant for sugar chain No. 723 (FAC binding constant; [2]): <1000 M⁻¹
- Binding constant for sugar chain No. 726 (FAC binding constant; [2]): <1000 M⁻¹
- Binding constant for sugar chain No. 727 (FAC binding constant; [2]): <1000 M⁻¹
- Binding constant for sugar chain No. 729 (FAC binding constant; [2]): <1000 M⁻¹
- Binding constant for sugar chain No. 730 (FAC binding constant; [2]): <1000 M⁻¹
- Binding constant for sugar chain No. 731 (FAC binding constant; [2]): <1000 M⁻¹
- Binding constant for sugar chain No. 739 (FAC binding constant; [2]): <1000 M⁻¹
- Binding constant for sugar chain No. 909 (FAC binding constant; [2]): <1000 M⁻¹
- Binding constant for sugar chain No. 910 (FAC binding constant; [2]): <1000 M⁻¹
- Binding constant for sugar chain No. 931 (FAC binding constant; [2]): <1000 M⁻¹
- Binding constant for sugar chain No. 932 (FAC binding constant; [2]): <1000 M⁻¹
- Binding constant for sugar chain No. 933 (FAC binding constant; [2]): <1000 M⁻¹
- Binding constant for sugar chain No. 001 (FAC binding constant; sugar chain having no fucose): <1000 M⁻¹
- Binding constant for sugar chain No. 002 (FAC binding constant; sugar chain having no fucose): <1000 M⁻¹
- Binding constant for sugar chain No. 003 (FAC binding constant; sugar chain having no fucose): <1000 M⁻¹
- Binding constant for sugar chain No. 004 (FAC binding constant; sugar chain having no fucose): <1000 M⁻¹
- Binding constant for sugar chain No. 005 (FAC binding constant; sugar chain having no fucose): <1000 M⁻¹
- Binding constant for sugar chain No. 006 (FAC binding constant; sugar chain having no fucose): <1000 M⁻¹
- Binding constant for sugar chain No. 007 (FAC binding constant; sugar chain having no fucose): <1000 M⁻¹
- Binding constant for sugar chain No. 008 (FAC binding constant; sugar chain having no fucose): <1000 M⁻¹
- Binding constant for sugar chain No. 009 (FAC binding constant; sugar chain having no fucose): <1000 M⁻¹
- Binding constant for sugar chain No. 010 (FAC binding constant; sugar chain having no fucose): <1000 M⁻¹
- Binding constant for sugar chain No. 011 (FAC binding constant; sugar chain having no fucose): <1000 M⁻¹
- Binding constant for sugar chain No. 012 (FAC binding constant; sugar chain having no fucose): <1000 M⁻¹
- Binding constant for sugar chain No. 013 (FAC binding constant; sugar chain having no fucose): <1000 M⁻¹
- Binding constant for sugar chain No. 014 (FAC binding constant; sugar chain having no fucose): <1000 M⁻¹
- Binding constant for sugar chain No. 101 (FAC binding constant; sugar chain having no fucose): <1000 M⁻¹
- Binding constant for sugar chain No. 103 (FAC binding constant; sugar chain having no fucose): <1000 M⁻¹
- Binding constant for sugar chain No. 104 (FAC binding constant; sugar chain having no fucose): <1000 M⁻¹
- Binding constant for sugar chain No. 105 (FAC binding constant; sugar chain having no fucose): <1000 M⁻¹
- Binding constant for sugar chain No. 107 (FAC binding constant; sugar chain having no fucose): <1000 M⁻¹
- Binding constant for sugar chain No. 108 (FAC binding constant; sugar chain having no fucose): <1000 M⁻¹
- Binding constant for sugar chain No. 301 (FAC binding constant; sugar chain having no fucose): <1000 M⁻¹
- Binding constant for sugar chain No. 304 (FAC binding constant; sugar chain having no fucose): <1000 M⁻¹
- Binding constant for sugar chain No. 305 (FAC binding constant; sugar chain having no fucose): <1000 M⁻¹
- Binding constant for sugar chain No. 307 (FAC binding constant; sugar chain having no fucose): <1000 M⁻¹
- Binding constant for sugar chain No. 308 (FAC binding constant; sugar chain having no fucose): <1000 M⁻¹
- Binding constant for sugar chain No. 313 (FAC binding constant; sugar chain having no fucose): <1000 M⁻¹
- Binding constant for sugar chain No. 314 (FAC binding constant; sugar chain having no fucose): <1000 M⁻¹
- Binding constant for sugar chain No. 323 (FAC binding constant; sugar chain having no fucose): <1000 M⁻¹
- Binding constant for sugar chain No. 501 (FAC binding constant; sugar chain having no fucose): <1000 M⁻¹
- Binding constant for sugar chain No. 502 (FAC binding constant; sugar chain having no fucose): <1000 M⁻¹
- Binding constant for sugar chain No. 503 (FAC binding constant; sugar chain having no fucose): <1000 M⁻¹
- Binding constant for sugar chain No. 504 (FAC binding constant; sugar chain having no fucose): <1000 M⁻¹
- Binding constant for sugar chain No. 701 (FAC binding constant; sugar chain having no fucose): <1000 M⁻¹
- Binding constant for sugar chain No. 702 (FAC binding constant; sugar chain having no fucose): <1000 M⁻¹
- Binding constant for sugar chain No. 703 (FAC binding constant; sugar chain having no fucose): <1000 M⁻¹
- Binding constant for sugar chain No. 704 (FAC binding constant; sugar chain having no fucose): <1000 M⁻¹
- Binding constant for sugar chain No. 705 (FAC binding constant; sugar chain having no fucose): <1000 M⁻¹
- Binding constant for sugar chain No. 706 (FAC binding constant; sugar chain having no fucose): <1000 M⁻¹
- Binding constant for sugar chain No. 707 (FAC binding constant; sugar chain having no fucose): <1000 M⁻¹
- Binding constant for sugar chain No. 708 (FAC binding constant; sugar chain having no fucose): <1000 M⁻¹
- Binding constant for sugar chain No. 709 (FAC binding constant; sugar chain having no fucose): <1000 M⁻¹
- Binding constant for sugar chain No. 710 (FAC binding constant; sugar chain having no fucose): <1000 M⁻¹
- Binding constant for sugar chain No. 711 (FAC binding constant; sugar chain having no fucose): <1000 M⁻¹
- Binding constant for sugar chain No. 712 (FAC binding constant; sugar chain having no fucose): <1000 M⁻¹
- Binding constant for sugar chain No. 713 (FAC binding constant; sugar chain having no fucose): <1000 M⁻¹
- Binding constant for sugar chain No. 715 (FAC binding constant; sugar chain having no fucose): <1000 M⁻¹
- Binding constant for sugar chain No. 716 (FAC binding constant; sugar chain having no fucose): <1000 M⁻¹
- Binding constant for sugar chain No. 717 (FAC binding constant; sugar chain having no fucose): <1000 M⁻¹
- Binding constant for sugar chain No. 724 (FAC binding constant; sugar chain having no fucose): <1000 M⁻¹
- Binding constant for sugar chain No. 725 (FAC binding constant; sugar chain having no fucose): <1000 M⁻¹
- Binding constant for sugar chain No. 732 (FAC binding constant; sugar chain having no fucose): <1000 M⁻¹
- Binding constant for sugar chain No. 733 (FAC binding constant; sugar chain having no fucose): <1000 M⁻¹
- Binding constant for sugar chain No. 734 (FAC binding constant; sugar chain having no fucose): <1000 M⁻¹
- Binding constant for sugar chain No. 735 (FAC binding constant; sugar chain having no fucose): <1000 M⁻¹
- Binding constant for sugar chain No. 736 (FAC binding constant; sugar chain having no fucose): <1000 M⁻¹
- Binding constant for sugar chain No. 737 (FAC binding constant; sugar chain having no fucose): <1000 M⁻¹
- Binding constant for sugar chain No. 738 (FAC binding constant; sugar chain having no fucose): <1000 M⁻¹
- Binding constant for sugar chain No. 901 (FAC binding constant; sugar chain having no fucose): <1000 M⁻¹
- Binding constant for sugar chain No. 902 (FAC binding constant; sugar chain having no fucose): <1000 M⁻¹
- Binding constant for sugar chain No. 903 (FAC binding constant; sugar chain having no fucose): <1000 M⁻¹
- Binding constant for sugar chain No. 905 (FAC binding constant; sugar chain having no fucose): <1000 M⁻¹
- Binding constant for sugar chain No. 906 (FAC binding constant; sugar chain having no fucose): <1000 M⁻¹
- Binding constant for sugar chain No. 907 (FAC binding constant; sugar chain having no fucose): <1000 M⁻¹
- Binding constant for sugar chain No. 015 (FAC binding constant; sugar chain having α1→6 fucose): 190000 M⁻¹
- Binding constant for sugar chain No. 201 (FAC binding constant; sugar chain having α1→6 fucose): 230000 M⁻¹
- Binding constant for sugar chain No. 202 (FAC binding constant; sugar chain having α1→6 fucose): 230000 M⁻¹
- Binding constant for sugar chain No. 203 (FAC binding constant; sugar chain having α1→6 fucose): 200000 M⁻¹
- Binding constant for sugar chain No. 401 (FAC binding constant; sugar chain having α1→6 fucose): 350000 M⁻¹
- Binding constant for sugar chain No. 402 (FAC binding constant; sugar chain having α1→6 fucose): 200000 M⁻¹
- Binding constant for sugar chain No. 403 (FAC binding constant; sugar chain having α1→6 fucose): 340000 M⁻¹
- Binding constant for sugar chain No. 404 (FAC binding constant; sugar chain having α1→6 fucose): 390000 M⁻¹
- Binding constant for sugar chain No. 405 (FAC binding constant; sugar chain having α1→6 fucose): 320000 M⁻¹
- Binding constant for sugar chain No. 406 (FAC binding constant; sugar chain having α1→6 fucose): 220000 M⁻¹
- Binding constant for sugar chain No. 407 (FAC binding constant; sugar chain having α1→6 fucose): 280000 M⁻¹
- Binding constant for sugar chain No. 410 (FAC binding constant; sugar chain having α1→6 fucose): 220000 M⁻¹
- Binding constant for sugar chain No. 413 (FAC binding constant; sugar chain having α1→6 fucose): 280000 M⁻¹
- Binding constant for sugar chain No. 418 (FAC binding constant; sugar chain having α1→6 fucose): 220000 M⁻¹
- Binding constant for sugar chain No. 601 (FAC binding constant; sugar chain having α1→6 fucose): 240000 M⁻¹
- Binding constant for sugar chain No. 602 (FAC binding constant; sugar chain having α1→6 fucose): 120000 M⁻¹
Substance: LSL: fucose α1→6 specific lectin that can be extracted from Lepista sordida, SEQ ID No. 3
